Assays:
[1] = molecular target: Tyrosine-protein kinase Fgr (Homo sapiens) (UniProt P09769); details: Compound concentration 1000.0 nM
[2] = molecular target: Sodium-dependent noradrenaline transporter (Homo sapiens) (UniProt P23975); details: Compound concentration 10.0 uM
[3] = molecular target: Tyrosine-protein kinase SYK (Homo sapiens) (UniProt P43405); details: Compound concentration 1000.0 nM
[4] = molecular target: 5-hydroxytryptamine receptor 1B (Homo sapiens) (UniProt P28222); details: Compound concentration 10.0 uM
[5] = molecular target: Phosphatidylinositol 4,5-bisphosphate 3-kinase catalytic subunit beta isoform (Homo sapiens) (UniProt P42338); details: Compound concentration 1000.0 nM
[6] = molecular target: Mitogen-activated protein kinase kinase kinase 3 (Homo sapiens) (UniProt Q99759); details: Compound concentration 1000.0 nM
[7] = molecular target: Mitogen-activated protein kinase 6 (Homo sapiens) (UniProt Q16659); details: Compound concentration 1000.0 nM
[8] = molecular target: Angiopoietin-1 receptor (Homo sapiens) (UniProt Q02763); details: Compound concentration 1000.0 nM
[9] = molecular target: Phosphatidylinositol 4-phosphate 3-kinase C2 domain-containing subunit beta (Homo sapiens) (UniProt O00750); details: Compound concentration 1000.0 nM
[10] = molecular target: Serine/threonine-protein kinase pim-3 (Homo sapiens) (UniProt Q86V86); details: Compound concentration 1000.0 nM
[11] = molecular target: Calcium/calmodulin-dependent protein kinase type 1B (Homo sapiens) (UniProt Q6P2M8); details: Compound concentration 1000.0 nM
[12] = molecular target: Protein kinase C delta type (Homo sapiens) (UniProt Q05655); details: Compound concentration 1000.0 nM
[13] = molecular target: 5-hydroxytryptamine receptor 1D (Homo sapiens) (UniProt P28221); details: Compound concentration 10.0 uM
[14] = molecular target: cGMP-dependent protein kinase 1 (Homo sapiens) (UniProt Q13976); details: Compound concentration 1000.0 nM
[15] = molecular target: Hepatocyte growth factor receptor (Homo sapiens) (UniProt P08581); details: Compound concentration 1000.0 nM
[16] = molecular target: Serine/threonine-protein kinase pim-1 (Homo sapiens) (UniProt P11309); details: Compound concentration 1000.0 nM
[17] = molecular target: D(1A) dopamine receptor (Homo sapiens) (UniProt P21728); details: Compound concentration 10.0 uM
[18] = molecular target: Serine/threonine-protein kinase ULK3 (Homo sapiens) (UniProt Q6PHR2); details: Compound concentration 1000.0 nM
[19] = molecular target: Fibroblast growth factor receptor 3 (Homo sapiens) (UniProt P22607); details: Compound concentration 1000.0 nM
[20] = molecular target: Tyrosine-protein kinase Fer (Homo sapiens) (UniProt P16591); details: Compound concentration 1000.0 nM
[21] = molecular target: Calcium/calmodulin-dependent protein kinase type 1G (Homo sapiens) (UniProt Q96NX5); details: Compound concentration 1000.0 nM
[22] = molecular target: Cytoplasmic tyrosine-protein kinase BMX (Homo sapiens) (UniProt P51813); details: Compound concentration 1000.0 nM
[23] = molecular target: 5-hydroxytryptamine receptor 7 (Homo sapiens) (UniProt P34969); details: Compound concentration 10.0 uM
[24] = molecular target: Serine/threonine-protein kinase MARK2 (Homo sapiens) (UniProt Q7KZI7); details: Compound concentration 1000.0 nM
[25] = test system: Phosphatidylinositol 4,5-bisphosphate 3-kinase catalytic subunit alpha isoform (Homo sapiens), P42336 [E545K]; details: Compound concentration 1000.0 nM
[26] = molecular target: Calcium/calmodulin-dependent protein kinase kinase 2 (Homo sapiens) (UniProt Q96RR4); details: Compound concentration 1000.0 nM
[27] = molecular target: Tyrosine-protein kinase Tec (Homo sapiens) (UniProt P42680); details: Compound concentration 1000.0 nM
[28] = molecular target: Bone morphogenetic protein receptor type-1A (Homo sapiens) (UniProt P36894); details: Compound concentration 1000.0 nM
[29] = molecular target: Dual specificity mitogen-activated protein kinase kinase 4 (Homo sapiens) (UniProt P45985); details: Compound concentration 1000.0 nM
[30] = molecular target: T1, Muscarinic acetylcholine receptor M1 (Homo sapiens) (UniProt P11229); details: Compound concentration 10.0 uM
T1 sequence (whole entry): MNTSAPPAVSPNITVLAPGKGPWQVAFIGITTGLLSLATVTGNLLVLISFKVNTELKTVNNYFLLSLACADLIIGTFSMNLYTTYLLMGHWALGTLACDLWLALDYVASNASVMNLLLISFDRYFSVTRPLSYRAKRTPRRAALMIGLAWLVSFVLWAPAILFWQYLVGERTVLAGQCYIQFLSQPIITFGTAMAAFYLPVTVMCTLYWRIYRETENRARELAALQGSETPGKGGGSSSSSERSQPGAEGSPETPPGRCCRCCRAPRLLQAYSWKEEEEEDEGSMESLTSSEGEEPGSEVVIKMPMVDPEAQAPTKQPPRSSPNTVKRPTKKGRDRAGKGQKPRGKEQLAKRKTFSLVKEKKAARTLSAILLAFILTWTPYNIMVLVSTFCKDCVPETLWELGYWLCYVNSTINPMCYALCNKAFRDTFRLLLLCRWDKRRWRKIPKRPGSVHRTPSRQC

[31] = molecular target: Serine/threonine-protein kinase PRP4 homolog (Homo sapiens) (UniProt Q13523); details: Compound concentration 1000.0 nM
[32] = molecular target: Tyrosine-protein kinase JAK3 (Homo sapiens) (UniProt P52333); details: Compound concentration 1000.0 nM
[33] = molecular target: Tyrosine-protein kinase Blk (Homo sapiens) (UniProt P51451); details: Compound concentration 1000.0 nM
[34] = molecular target: Myosin-IIIa (Homo sapiens) (UniProt Q8NEV4); details: Compound concentration 1000.0 nM
[35] = molecular target: Serine/threonine-protein kinase 32C (Homo sapiens) (UniProt Q86UX6); details: Compound concentration 1000.0 nM
[36] = molecular target: Proto-oncogene tyrosine-protein kinase ROS (Homo sapiens) (UniProt P08922); details: Compound concentration 1000.0 nM
[37] = molecular target: Muscarinic acetylcholine receptor M5 (Homo sapiens) (UniProt P08912); details: Compound concentration 10.0 uM
[38] = molecular target: Leucine-rich repeat serine/threonine-protein kinase 2 (Homo sapiens) (UniProt Q5S007); details: Compound concentration 1000.0 nM
[39] = molecular target: Serine/threonine-protein kinase D2 (Homo sapiens) (UniProt Q9BZL6); details: Compound concentration 1000.0 nM
Serine/threonine-protein kinase D2 (Homo sapiens), sequence (Q9BZL6 whole entry): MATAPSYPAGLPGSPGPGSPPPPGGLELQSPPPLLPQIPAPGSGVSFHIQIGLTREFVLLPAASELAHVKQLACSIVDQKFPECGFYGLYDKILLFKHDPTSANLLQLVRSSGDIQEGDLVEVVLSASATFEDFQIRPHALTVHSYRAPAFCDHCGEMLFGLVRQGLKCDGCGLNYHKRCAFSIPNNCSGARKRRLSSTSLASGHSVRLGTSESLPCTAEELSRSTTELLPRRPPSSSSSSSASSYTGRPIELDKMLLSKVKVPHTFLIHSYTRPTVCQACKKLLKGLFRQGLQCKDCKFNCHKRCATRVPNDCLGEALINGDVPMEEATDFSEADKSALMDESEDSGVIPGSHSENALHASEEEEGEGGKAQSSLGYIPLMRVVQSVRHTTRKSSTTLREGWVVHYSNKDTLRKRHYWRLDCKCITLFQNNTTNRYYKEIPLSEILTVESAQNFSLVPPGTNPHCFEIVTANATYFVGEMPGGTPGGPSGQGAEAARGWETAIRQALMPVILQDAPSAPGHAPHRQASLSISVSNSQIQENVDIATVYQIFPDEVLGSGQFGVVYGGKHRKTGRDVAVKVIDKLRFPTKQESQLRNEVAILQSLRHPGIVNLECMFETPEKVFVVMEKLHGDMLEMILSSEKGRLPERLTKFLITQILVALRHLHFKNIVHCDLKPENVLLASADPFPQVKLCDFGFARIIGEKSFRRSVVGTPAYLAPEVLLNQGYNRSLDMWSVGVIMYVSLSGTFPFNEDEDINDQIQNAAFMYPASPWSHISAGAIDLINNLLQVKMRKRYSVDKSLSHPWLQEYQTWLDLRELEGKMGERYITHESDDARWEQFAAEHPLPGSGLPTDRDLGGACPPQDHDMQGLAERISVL

Phosphatidylinositol 4,5-bisphosphate 3-kinase catalytic subunit alpha isoform (Homo sapiens), P42336 [E545K], sequence (P42336 whole entry E545K, canonical isoform): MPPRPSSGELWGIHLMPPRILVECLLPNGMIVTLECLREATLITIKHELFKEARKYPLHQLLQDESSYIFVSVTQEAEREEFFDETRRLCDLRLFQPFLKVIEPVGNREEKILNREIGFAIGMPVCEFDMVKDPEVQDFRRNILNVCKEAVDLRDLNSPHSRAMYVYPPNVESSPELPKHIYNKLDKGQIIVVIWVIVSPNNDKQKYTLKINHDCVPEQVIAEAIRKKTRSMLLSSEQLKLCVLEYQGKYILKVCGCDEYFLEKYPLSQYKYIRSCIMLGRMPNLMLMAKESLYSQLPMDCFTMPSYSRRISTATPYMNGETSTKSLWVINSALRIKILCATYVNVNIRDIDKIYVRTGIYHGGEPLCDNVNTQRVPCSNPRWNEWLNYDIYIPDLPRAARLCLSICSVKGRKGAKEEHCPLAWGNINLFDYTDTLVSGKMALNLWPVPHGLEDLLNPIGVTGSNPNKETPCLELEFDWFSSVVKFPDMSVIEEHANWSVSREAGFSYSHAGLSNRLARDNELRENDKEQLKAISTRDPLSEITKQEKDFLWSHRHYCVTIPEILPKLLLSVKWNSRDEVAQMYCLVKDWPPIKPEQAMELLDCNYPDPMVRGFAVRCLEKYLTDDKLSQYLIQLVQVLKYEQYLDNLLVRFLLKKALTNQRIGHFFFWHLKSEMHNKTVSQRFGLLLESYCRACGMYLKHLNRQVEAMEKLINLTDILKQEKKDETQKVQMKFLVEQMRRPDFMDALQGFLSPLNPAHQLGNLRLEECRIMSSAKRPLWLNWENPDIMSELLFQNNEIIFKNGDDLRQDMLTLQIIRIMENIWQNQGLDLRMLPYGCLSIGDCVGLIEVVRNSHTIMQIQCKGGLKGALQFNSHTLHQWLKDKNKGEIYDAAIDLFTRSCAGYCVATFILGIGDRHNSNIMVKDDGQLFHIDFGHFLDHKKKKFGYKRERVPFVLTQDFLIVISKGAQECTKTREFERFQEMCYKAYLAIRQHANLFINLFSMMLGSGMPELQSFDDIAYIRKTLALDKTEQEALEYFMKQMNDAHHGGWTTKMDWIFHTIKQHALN
Mitogen-activated protein kinase 6 (Homo sapiens), sequence (Q16659 whole entry): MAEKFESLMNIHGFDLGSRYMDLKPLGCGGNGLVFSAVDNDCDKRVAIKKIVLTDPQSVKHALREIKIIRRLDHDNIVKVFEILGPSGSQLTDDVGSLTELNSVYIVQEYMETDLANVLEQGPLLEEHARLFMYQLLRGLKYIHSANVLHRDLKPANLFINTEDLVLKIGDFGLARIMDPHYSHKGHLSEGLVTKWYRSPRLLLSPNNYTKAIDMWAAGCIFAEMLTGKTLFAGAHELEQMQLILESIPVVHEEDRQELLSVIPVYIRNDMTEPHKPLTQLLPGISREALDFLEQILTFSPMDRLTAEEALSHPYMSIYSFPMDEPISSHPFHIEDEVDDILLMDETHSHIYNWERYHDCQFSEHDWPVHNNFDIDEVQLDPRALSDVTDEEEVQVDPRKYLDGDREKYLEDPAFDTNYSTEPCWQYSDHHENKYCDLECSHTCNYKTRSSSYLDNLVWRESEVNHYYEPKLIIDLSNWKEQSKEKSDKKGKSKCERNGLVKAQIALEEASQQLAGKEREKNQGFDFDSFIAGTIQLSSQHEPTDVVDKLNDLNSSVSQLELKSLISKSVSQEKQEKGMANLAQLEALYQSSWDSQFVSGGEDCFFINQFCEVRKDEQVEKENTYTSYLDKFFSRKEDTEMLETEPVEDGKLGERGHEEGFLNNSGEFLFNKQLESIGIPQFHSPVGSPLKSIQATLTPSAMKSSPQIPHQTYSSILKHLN
5-hydroxytryptamine receptor 1D (Homo sapiens), sequence (P28221 whole entry): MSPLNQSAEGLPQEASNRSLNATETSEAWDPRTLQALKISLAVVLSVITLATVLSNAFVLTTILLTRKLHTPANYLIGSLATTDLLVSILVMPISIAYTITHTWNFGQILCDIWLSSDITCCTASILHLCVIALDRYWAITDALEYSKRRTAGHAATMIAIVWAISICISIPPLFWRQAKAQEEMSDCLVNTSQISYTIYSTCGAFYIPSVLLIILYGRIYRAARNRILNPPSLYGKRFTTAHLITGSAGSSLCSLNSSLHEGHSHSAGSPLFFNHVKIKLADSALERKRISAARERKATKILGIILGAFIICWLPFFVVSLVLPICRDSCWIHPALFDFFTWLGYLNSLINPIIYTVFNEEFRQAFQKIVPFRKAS
Calcium/calmodulin-dependent protein kinase type 1B (Homo sapiens), sequence (Q6P2M8 whole entry): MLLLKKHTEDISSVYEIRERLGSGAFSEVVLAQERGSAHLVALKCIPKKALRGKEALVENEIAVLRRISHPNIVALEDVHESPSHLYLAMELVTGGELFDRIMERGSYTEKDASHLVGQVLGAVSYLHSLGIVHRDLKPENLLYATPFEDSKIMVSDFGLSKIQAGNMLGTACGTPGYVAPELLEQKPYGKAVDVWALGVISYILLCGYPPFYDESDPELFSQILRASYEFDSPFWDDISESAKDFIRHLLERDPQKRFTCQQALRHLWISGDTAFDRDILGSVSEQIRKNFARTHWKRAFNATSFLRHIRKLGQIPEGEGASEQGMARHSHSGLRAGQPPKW
Serine/threonine-protein kinase MARK2 (Homo sapiens), sequence (Q7KZI7 whole entry, canonical isoform): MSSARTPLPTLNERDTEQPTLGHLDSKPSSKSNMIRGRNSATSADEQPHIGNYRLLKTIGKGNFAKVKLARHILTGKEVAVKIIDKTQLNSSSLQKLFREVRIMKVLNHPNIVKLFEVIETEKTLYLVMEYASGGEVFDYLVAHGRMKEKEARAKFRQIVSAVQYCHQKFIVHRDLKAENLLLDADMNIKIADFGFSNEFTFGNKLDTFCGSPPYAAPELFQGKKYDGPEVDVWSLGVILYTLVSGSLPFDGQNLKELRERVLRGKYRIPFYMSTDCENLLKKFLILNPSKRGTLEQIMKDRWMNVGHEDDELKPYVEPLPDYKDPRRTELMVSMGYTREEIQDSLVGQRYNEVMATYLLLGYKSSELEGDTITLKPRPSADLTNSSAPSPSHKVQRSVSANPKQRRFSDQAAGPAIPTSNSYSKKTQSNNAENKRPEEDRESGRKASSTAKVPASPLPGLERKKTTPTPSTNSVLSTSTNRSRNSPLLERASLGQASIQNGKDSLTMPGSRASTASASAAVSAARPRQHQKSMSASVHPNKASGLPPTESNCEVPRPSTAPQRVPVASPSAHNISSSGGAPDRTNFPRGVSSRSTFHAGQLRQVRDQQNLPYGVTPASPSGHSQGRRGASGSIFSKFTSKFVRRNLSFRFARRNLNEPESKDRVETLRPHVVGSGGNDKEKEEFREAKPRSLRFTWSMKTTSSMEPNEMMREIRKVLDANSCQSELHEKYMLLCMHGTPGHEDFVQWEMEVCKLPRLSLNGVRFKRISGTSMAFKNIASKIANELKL
Tyrosine-protein kinase Tec (Homo sapiens), sequence (P42680 whole entry): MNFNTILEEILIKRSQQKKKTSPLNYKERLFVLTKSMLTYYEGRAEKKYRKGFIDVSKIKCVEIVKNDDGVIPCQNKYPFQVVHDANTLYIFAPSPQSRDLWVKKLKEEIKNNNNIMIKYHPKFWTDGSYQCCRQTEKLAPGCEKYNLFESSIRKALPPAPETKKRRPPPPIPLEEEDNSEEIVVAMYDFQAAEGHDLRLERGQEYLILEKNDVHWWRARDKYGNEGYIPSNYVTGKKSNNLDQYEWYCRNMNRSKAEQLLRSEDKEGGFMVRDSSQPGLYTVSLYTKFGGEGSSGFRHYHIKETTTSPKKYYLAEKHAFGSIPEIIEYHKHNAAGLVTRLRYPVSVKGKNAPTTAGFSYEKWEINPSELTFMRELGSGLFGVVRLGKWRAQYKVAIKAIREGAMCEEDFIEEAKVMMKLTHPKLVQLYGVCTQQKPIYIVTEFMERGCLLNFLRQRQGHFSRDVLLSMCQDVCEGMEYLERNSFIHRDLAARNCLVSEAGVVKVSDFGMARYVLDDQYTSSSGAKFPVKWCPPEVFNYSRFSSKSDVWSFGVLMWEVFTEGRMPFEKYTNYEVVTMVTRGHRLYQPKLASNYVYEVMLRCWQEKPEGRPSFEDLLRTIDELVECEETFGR

Compound | residual activity [1] [%] | inhibition [2] [%] | residual activity [3] [%] | inhibition [4] [%] | residual activity [5] [%] | residual activity [6] [%] | residual activity [7] [%] | residual activity [8] [%] | residual activity [9] [%] | residual activity [10] [%] | residual activity [11] [%] | residual activity [12] [%] | inhibition [13] [%] | residual activity [14] [%] | residual activity [15] [%] | residual activity [16] [%] | inhibition [17] [%] | residual activity [18] [%] | residual activity [19] [%] | residual activity [20] [%] | further results
O=C(O)[C@@H]1[C@@H](Cn2nnc3ccccc3c2=O)CC[C@H]1C(=O)c1ccc(OCCC2CCOCC2)cc1 [BAY-694] | 100 | -7.25 | 100 | 8.05 | 66 | 100 | 100 | 100 | 100 | 84 | 67 | 100 | 14 | 100 | 100 | 100 | 4.76 | 100 | 100 | 87 | residual activity [21]: 100%; residual activity [22]: 100%; inhibition [23]: -2.99%; residual activity [24]: 100%; residual activity [25]: 80%; residual activity [26]: 100%; residual activity [27]: 95%; residual activity [28]: 100%; residual activity [29]: 100%; inhibition [30]: 6.4%; residual activity [31]: 80%; residual activity [32]: 95%; residual activity [33]: 95%; residual activity [34]: 93%; residual activity [35]: 100%; residual activity [36]: 95%; inhibition [37]: 1.82%; residual activity [38]: 100%; residual activity [39]: 73%
O=C(O)[C@H]1[C@H](Cn2nnc3ccccc3c2=O)CC[C@@H]1C(=O)c1ccc(OCCC2CCOCC2)cc1 [BAY-7598] | 86 | -0.42 | 76 | 11.5 | 80 | 100 | 90 | 86 | 90 | 86 | 46 | 100 | 4.82 | 75 | 94 | 95 | 1.16 | 85 | 100 | 90 | residual activity [21]: 90%; residual activity [22]: 92%; inhibition [23]: -3.55%; residual activity [24]: 100%; residual activity [25]: 72%; residual activity [26]: 90%; residual activity [27]: 100%; residual activity [28]: 61%; residual activity [29]: 97%; inhibition [30]: 18%; residual activity [31]: 67%; residual activity [32]: 100%; residual activity [33]: 100%; residual activity [34]: 100%; residual activity [35]: 89%; residual activity [36]: 95%; inhibition [37]: 4.3%; residual activity [38]: 90%; residual activity [39]: 73%
